Test results taken from PMC8296573, “Synthesis and Biological Evaluation of Fingolimod Derivatives as Antibacterial Agents” (ACS Omega, 2021).
≈ marks a conversion by molar mass, not a printed value. Like-named read-outs stand apart in the source and are kept apart here.

Legend:
A. baumannii NCTC 13423 = assay: Antibacterial activity, pre-exposure; assay type: cell-based, Acinetobacter baumannii; conditions: for Average inhibition %, biofilms viability / Average inhibition %, planktonic cells viability / inhibition at 10 µM / inhibition at 15 µM / inhibition at 25 µM / inhibition at 50 µM: A. baumannii NCTC 13423, pre-exposure, ± SD; for inhibition at 10 µM / inhibition at 15 µM / inhibition at 25 µM / inhibition at 50 µM / MIC: Acinetobacter baumannii, NCTC13423
In short: (§1)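 For planktonic resazurin, 20 μM final was used: 3–10 min at RT for S. aureus and A. baumannii, 20 min at 37 °C for P. aeruginosa. Cultures had been co-incubated with compound for 18 h at 37 °C, 220 rpm. Biofilms were then assessed by resazurin and crystal violet.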

P. aeruginosa ATCC 9027 = assay: Antibacterial activity, pre-exposure; assay type: cell-based, Pseudomonas aeruginosa; conditions: for Average inhibition %, biofilms viability / Average inhibition %, planktonic cells viability / inhibition at 50 µM / inhibition at 100 µM / inhibition at 150 µM / inhibition at 200 µM: P. aeruginosa ATCC 9027, pre-exposure, ± SD; for inhibition at 50 µM / inhibition at 100 µM / inhibition at 150 µM / inhibition at 200 µM: Pseudomonas aeruginosa, ATCC9027
In short: as §1

S. aureus ATCC 25923 [1] = assay: Antibacterial activity, pre-exposure (planktonic cells and biofilm formation); assay type: cell-based, Staphylococcus aureus; conditions: for MIC / inhibition at 5 µM / inhibition at 10 µM / inhibition at 15 µM / inhibition at 25 µM: Staphylococcus aureus, ATCC25923; for inhibition at 5 µM / inhibition at 10 µM / inhibition at 15 µM / inhibition at 25 µM / Average inhibition %, biofilms viability / Average inhibition %, planktonic cells viability: pre-exposure, ± SD
In short: as §1

S. aureus ATCC 25923 [2] = assay: Antibacterial activity, post-exposure on preformed 18-h-old biofilms; assay type: cell-based, Staphylococcus aureus; conditions: ± SD; for inhibition at 25 µM / inhibition at 50 µM / inhibition at 100 µM / inhibition at 200 µM: Staphylococcus aureus; for inhibition at 25 µM: ATCC25923, 25 µM; for inhibition at 50 µM: ATCC25923, 50 µM; for inhibition at 100 µM: ATCC25923, 100 µM; for inhibition at 200 µM: ATCC25923, 200 µM
In short: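 Compounds were applied to preformed 18-h biofilms after medium change and left 24 h. Read-outs: planktonic OD plus resazurin fluorescence (20 μM), biofilm metabolic activity by resazurin 30 min at 37 °C, then biomass by crystal violet absorbance at 595 nm after ethanol fixation.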

[3] = 10 µM, read-out: Average inhibition %, biofilms biomass
[4] = 10 µM, read-out: Average inhibition %, planktonic cells turbidity
[5] = 15 µM, read-out: Average inhibition %, biofilms biomass
[6] = 15 µM, read-out: Average inhibition %, planktonic cells turbidity
[7] = 25 µM, read-out: Average inhibition %, biofilms biomass
[8] = 25 µM, read-out: Average inhibition %, planktonic cells turbidity
[9] = 50 µM, read-out: Average inhibition %, biofilms biomass
[10] = 50 µM, read-out: Average inhibition %, planktonic cells turbidity
[11] = read-out: Average inhibition %, biofilms biomass
[12] = read-out: Average inhibition %, planktonic cells turbidity

CCCCCC/C=C/c1ccc(CCC(N)(CO)CO)cc1 [Compound 42, (E)-2-Amino-2-[4-(oct-1-en-1-yl)phenethyl]propane-1,3-diol]
Average inhibition %, biofilms viability (A. baumannii NCTC 13423; 10 µM): 0.4 ± 0.3% | Average inhibition %, planktonic cells viability (A. baumannii NCTC 13423; 10 µM): 13.5 ± 3.1% | Average inhibition %, biofilms viability (A. baumannii NCTC 13423; 15 µM): 12.8 ± 7.2% | Average inhibition %, planktonic cells viability (A. baumannii NCTC 13423; 15 µM): 6 ± 6.6% | Average inhibition %, biofilms viability (A. baumannii NCTC 13423; 25 µM): 47.6 ± 37.1% | Average inhibition %, planktonic cells viability (A. baumannii NCTC 13423; 25 µM): 33.1 ± 52.5% | Average inhibition %, biofilms viability (A. baumannii NCTC 13423; 50 µM): 87.7 ± 9.8% | Average inhibition %, planktonic cells viability (A. baumannii NCTC 13423; 50 µM): 81 ± 27.7% | inhibition at 10 µM (A. baumannii NCTC 13423; [3]): 2.4 ± 4.3% | inhibition at 10 µM (A. baumannii NCTC 13423; [4]): 0% | inhibition at 15 µM (A. baumannii NCTC 13423; [5]): 6.2 ± 6% | inhibition at 15 µM (A. baumannii NCTC 13423; [6]): 0.6 ± 1% | inhibition at 25 µM (A. baumannii NCTC 13423; [7]): 18.2 ± 21.6% | inhibition at 25 µM (A. baumannii NCTC 13423; [8]): 40.8 ± 42.7% | inhibition at 50 µM (A. baumannii NCTC 13423; [9]): 67.2 ± 13.9% | inhibition at 50 µM (A. baumannii NCTC 13423; [10]): 83.1 ± 17.5% | MIC (A. baumannii NCTC 13423; pre-exposure, Inactive = no activity up to 50 μM, > = some inhibition but no MIC reached, read-out: MIC A. baumannii NCTC 13423): > 50 µM | MIC (A. baumannii NCTC 13423; supplementary molecular formula strings sheet, read-out: MIC (A. baumannii)): > 50 µM | Average inhibition %, biofilms viability (P. aeruginosa ATCC 9027; 50 µM): 3.9 ± 6.8% | Average inhibition %, planktonic cells viability (P. aeruginosa ATCC 9027; 50 µM): 24.8 ± 10.1% | Average inhibition %, biofilms viability (P. aeruginosa ATCC 9027; 100 µM): 1.5 ± 2.6% | Average inhibition %, planktonic cells viability (P. aeruginosa ATCC 9027; 100 µM): 15.1 ± 18% | Average inhibition %, biofilms viability (P. aeruginosa ATCC 9027; 150 µM): 0.9 ± 1.7% | Average inhibition %, planktonic cells viability (P. aeruginosa ATCC 9027; 150 µM): 18.9 ± 31% | Average inhibition %, biofilms viability (P. aeruginosa ATCC 9027; 200 µM): 0 ± 0% | Average inhibition %, planktonic cells viability (P. aeruginosa ATCC 9027; 200 µM): 27 ± 45% | inhibition at 50 µM (P. aeruginosa ATCC 9027; [9]): 30.1 ± 8.8% | inhibition at 50 µM (P. aeruginosa ATCC 9027; [10]): 16.3 ± 5.3% | inhibition at 100 µM (P. aeruginosa ATCC 9027; 100 µM, read-out: Average inhibition %, biofilms biomass): 30.3 ± 0.8% | inhibition at 100 µM (P. aeruginosa ATCC 9027; 100 µM, read-out: Average inhibition %, planktonic cells turbidity): 37.1 ± 13.5% | inhibition at 150 µM (P. aeruginosa ATCC 9027; 150 µM, read-out: Average inhibition %, biofilms biomass): 27.7 ± 2.1% | inhibition at 150 µM (P. aeruginosa ATCC 9027; 150 µM, read-out: Average inhibition %, planktonic cells turbidity): 45.1 ± 17.4% | inhibition at 200 µM (P. aeruginosa ATCC 9027; 200 µM, read-out: Average inhibition %, biofilms biomass): 36.2 ± 10.3% | inhibition at 200 µM (P. aeruginosa ATCC 9027; 200 µM, read-out: Average inhibition %, planktonic cells turbidity): 53.5 ± 14.1% | MIC P. aeruginosa ATCC 9027 (P. aeruginosa ATCC 9027; pre-exposure, Inactive = no activity up to 200 μM, > = some inhibition but no MIC reached): Inactive | MIC (S. aureus ATCC 25923 [1]; lowest concentration with no visible growth (>90% inhibition of turbidity and viability of planktonic cells), 18 h, read-out: MIC S. aureus ATCC 25923): 15 to 25 µM (≈ 4.58 to 7.64 µg/mL) | inhibition at 5 µM (S. aureus ATCC 25923 [1]; 5 µM, read-out: Average inhibition %, biofilms biomass): 41 ± 12.1% | inhibition at 5 µM (S. aureus ATCC 25923 [1]; 5 µM, read-out: Average inhibition %, planktonic cells turbidity): 18.8 ± 12.6% | inhibition at 10 µM (S. aureus ATCC 25923 [1]; [3]): 62.5 ± 24.1% | inhibition at 10 µM (S. aureus ATCC 25923 [1]; [4]): 53.3 ± 32.3% | inhibition at 15 µM (S. aureus ATCC 25923 [1]; [5]): 80.5 ± 26.4% | inhibition at 15 µM (S. aureus ATCC 25923 [1]; [6]): 84.6 ± 26.1% | inhibition at 25 µM (S. aureus ATCC 25923 [1]; [7]): 95.1 ± 0.5% | inhibition at 25 µM (S. aureus ATCC 25923 [1]; [8]): 99.4 ± 0.5% | MIC (S. aureus ATCC 25923 [1]; read-out: MIC (S. aureus)): 15 to 25 µM (≈ 4.58 to 7.64 µg/mL) | Average inhibition %, biofilms viability (S. aureus ATCC 25923 [1]; 5 µM): 16.3 ± 4.8% | Average inhibition %, planktonic cells viability (S. aureus ATCC 25923 [1]; 5 µM): 1.7 ± 3% | Average inhibition %, biofilms viability (S. aureus ATCC 25923 [1]; 10 µM): 55.9 ± 31% | Average inhibition %, planktonic cells viability (S. aureus ATCC 25923 [1]; 10 µM): 31.6 ± 54.9% | Average inhibition %, biofilms viability (S. aureus ATCC 25923 [1]; 15 µM): 81.1 ± 32.3% | Average inhibition %, planktonic cells viability (S. aureus ATCC 25923 [1]; 15 µM): 66.4 ± 57.5% | Average inhibition %, biofilms viability (S. aureus ATCC 25923 [1]; 25 µM): 99.2 ± 0.8% | Average inhibition %, planktonic cells viability (S. aureus ATCC 25923 [1]; 25 µM): 99.6 ± 0.2% | Average inhibition %, biofilms viability (S. aureus ATCC 25923 [2]; 25 µM): 20 ± 6.1% | Average inhibition %, planktonic cells viability (S. aureus ATCC 25923 [2]; 25 µM): 2.8 ± 5% | Average inhibition %, biofilms viability (S. aureus ATCC 25923 [2]; 50 µM): 42 ± 16% | Average inhibition %, planktonic cells viability (S. aureus ATCC 25923 [2]; 50 µM): 19.1 ± 18.9% | Average inhibition %, biofilms viability (S. aureus ATCC 25923 [2]; 100 µM): 48.3 ± 2.3% | Average inhibition %, planktonic cells viability (S. aureus ATCC 25923 [2]; 100 µM): 68.7 ± 18.2% | Average inhibition %, biofilms viability (S. aureus ATCC 25923 [2]; 200 µM): 44.8 ± 10.4% | Average inhibition %, planktonic cells viability (S. aureus ATCC 25923 [2]; 200 µM): 35.1 ± 44.8% | inhibition at 25 µM (S. aureus ATCC 25923 [2]; [11]): 39 ± 2.5% | inhibition at 25 µM (S. aureus ATCC 25923 [2]; [12]): 12 ± 9.6% | inhibition at 50 µM (S. aureus ATCC 25923 [2]; [11]): 54.1 ± 1.9% | inhibition at 50 µM (S. aureus ATCC 25923 [2]; [12]): 29.7 ± 16.3% | inhibition at 100 µM (S. aureus ATCC 25923 [2]; [11]): 54.8 ± 5.9% | inhibition at 100 µM (S. aureus ATCC 25923 [2]; [12]): 56.9 ± 19.5% | inhibition at 200 µM (S. aureus ATCC 25923 [2]; [11]): 59.8 ± 21% | inhibition at 200 µM (S. aureus ATCC 25923 [2]; [12]): 46.2 ± 27.3%
